According to article PMC7228129, “Evaluation of Developmental Toxicity, Developmental Neurotoxicity, and Tissue Dose in Zebrafish Exposed to GenX and Other PFAS” (Environmental Health Perspectives, 2020):
“Also recorded” adds a separate entry of the source. Read-outs that look alike come from different tables or passages of the source.

Legend:
[1] = GenX Free Acid stock degradation / stability in DMSO; type: physicochemical; details: DMSO as diluent/vehicle
[2] = Tissue analysis (internal tissue dose of parent PFAS, bioconcentration factor); type: in vivo, Danio rerio; details: for BCFdry: 6-d zebrafish assay; for concentration at 6 dpf: zebrafish (Danio rerio), whole larvae (pools of 10, homogenised), other: waterborne exposure in the well medium, 6 dpf larvae, dry weight 44 μg per larva, read-out: Measured tissue dose
Experimental: Zebrafish were exposed to 25.1, 44.8, or 80.0μM ADONA, PFOA, PFESA1, or PFHxA, 14.0, 25.1, or 44.8μM PFHxS, or 1.0, 1.8, or 3.1μM PFOS, or 0.4% DMSO. The highest concentration evaluated was the no observed effect concentration (NOEC) determined in Study 1. In Study 2, zebrafish were exposed to 25.1, 44.8, or 80.0μM GenX Free Acid or 0.4% DMSO. According to the previously described microtiter plate inclusion criterion, 15/15 plates were included in the study. Larvae were anesthetized by rapid cooling in chilled 10% HBSS. Groups of 10 anesthetized larvae were pooled to comprise one biological replicate ( n=4 ) in 500μL of 10% HBSS, flash frozen in liquid nitrogen, and stored at −80°C . In the case of ADONA, n=5 .
Tissue samples were prepared by protein precipitation. Flash frozen samples, consisting of pools of ten 6-dpf zebrafish larvae, were homogenized using ∼100mg of 1.0-mm diameter zirconia/silica beads and a Fast-Prep-24™ homogenizer (MP Biomedicals) in 100μL 0.1M formic acid fortified with the surrogate (i.e., PFNA). Protein was precipitated from the homogenate with 400μL of acetonitrile containing internal standards and separated by centrifugation at 14,000 rpm for 15 min at 4°C. Fifty microliters of the extract was diluted with 200μL aqueous 0.4 mM ammonium formate in the LC vial for analysis. Standards and samples were analyzed with Vanquish UPLC and Orbitrap Fusion mass spectrometer (Thermo Electron) operated in negative ESI mode. ESI source conditions were optimized for the [M-H]^− ion of PFAS as follows: spray voltage −3.5 kV , sheath gas 25 au (arbitrary units), aux gas 6 au, sweep gas 0 au, ion transfer tube temperature 300°C, and vaporizer temperature […]. High-resolution accurate mass (HRAM) MS1 scans were collected with the following parameters: detector type orbitrap, orbitrap resolution 30,000 full width at half maximum (FWHM), normal mass range, Use quadrapole isolation=true , scan range 70–700m/z , radio frequency (RF) lens 60%, automatic gain control (AGC) target 4.00×10^5 , max injection time of 50 ms , 1 microscan, data type set to profile, negative polarity, and source fragmentation disabled. Data-dependent orbitrap MSMS (ddMS2-OT) scans were collected for the [M-H]^− ion [ M-H-CO2 for GenX]^– using a target mass list for the eight PFAS and PFNA surrogate for identity confirmation. The apex detection was set to an expected peak width of 2 s at FWHM and desired apex peak window of 30%. The dynamic exclusion parameters were set to exclude after a one-time, 60-s exclusion duration, low and high mass tolerances of 10 ppm , and exclude isotope was set to true. The intensity threshold for collecting an MSMS scan was set to 2.5E+04 . Fragmentation was done by high-energy collisional dissociation (HCD). The ddMS2-OT scans were collected with the following parameters: orbitrap isolation mode, isolation window of 1.6m/z , isolation offset off, stepped HCD collision energy of 30%±10% , scan range of auto mass-to-charge ratio normal, orbitrap resolution of 30,000 FWHM, first mass 75m/z , max injection time of […], AGC target 5.00×10^4 , inject ions from available parallelizable time set to true, max injection time of 54 ms, 1 microscan, and data type set to centroid. UPLC separation was achieved using ACQUITY UPLC BEH C18 Column, 130Å , 1.7μM , 2.1mm×50mm (Waters Corp P/N 186,002,350) at 50°C with gradient elution at a flow rate of 300μL/min using 0.4 mM ammonium formate in acetonitrile and water with a 10-μL injection. Data collection, integration, calibration, and quantitation were performed using Xcalibur software (version 4.1; Thermo Electron). Concentration for each PFAS analyte was determined by internal standard technique using isotopically labeled internal standards and matrix-matched calibration standards. Quantitative analysis was performed using high-resolution MS1-extracted ion chromatograms. […]

## O=C(O)C(F)(OC(F)(F)C(F)(F)C(F)(F)F)C(F)(F)F (stereo not drawn) [GenX Free Acid, Perfluoro-2-propoxypropanoic acid]
[1]
  Stability in DMSO: unstable in DMSO; also recorded: not stable in DMSO
[2]; GenX Free Acid diluted in DI water (Study 2)
  Parent compound in larval zebrafish tissue: detectable levels; also recorded: detectable in zebrafish tissue
[2]; GenX Free Acid diluted in DMSO (Study 1)
  Parent compound in zebrafish tissue at 6 dpf: undetectable
[2]; nominal 25.1 μM in DI water (Study 2)
  BCFdry: 0.45 L/kg
[2]; nominal 44.8 μM in DI water (Study 2)
  BCFdry: 0.29 L/kg
[2]; nominal 80.0 μM in DI water (Study 2)
  BCFdry: 0.49 L/kg
[2]; nominal 25.1 μM in DI water (Study 2) daily 0–5 dpf
  concentration at 6 dpf: 2480 ± 660 ng/g
[2]; nominal 44.8 μM in DI water (Study 2) daily 0–5 dpf
  concentration at 6 dpf: 2020 ± 270 ng/g
[2]; nominal 80.0 μM in DI water (Study 2) daily 0–5 dpf
  concentration at 6 dpf: 5110 ± 1490 ng/g
